Assay results published in patent US10040838B2, “CRHR2 peptide agonists and uses thereof” (JANSSEN PHARMACEUTICA NV, priority 2008, dated 2018).
Residues, ends and D or L forms follow the SMILES beside them. *: point of attachment. Succinimide(1-Et,3-yl) = CCN1C(=O)CC(*)C1=O

molecular target: T1, human CRHR2 (Homo sapiens, UniProt Q13324); assay: cAMP assay in h-CRHR2 transfected SK-N-MC cells; type: cell-based; details: Table 13; h-SCP control pA50 minus test compound pA50 within same assay batch
T1 construct: expressed in transfected cells
T1 sequence (Q13324 1-411): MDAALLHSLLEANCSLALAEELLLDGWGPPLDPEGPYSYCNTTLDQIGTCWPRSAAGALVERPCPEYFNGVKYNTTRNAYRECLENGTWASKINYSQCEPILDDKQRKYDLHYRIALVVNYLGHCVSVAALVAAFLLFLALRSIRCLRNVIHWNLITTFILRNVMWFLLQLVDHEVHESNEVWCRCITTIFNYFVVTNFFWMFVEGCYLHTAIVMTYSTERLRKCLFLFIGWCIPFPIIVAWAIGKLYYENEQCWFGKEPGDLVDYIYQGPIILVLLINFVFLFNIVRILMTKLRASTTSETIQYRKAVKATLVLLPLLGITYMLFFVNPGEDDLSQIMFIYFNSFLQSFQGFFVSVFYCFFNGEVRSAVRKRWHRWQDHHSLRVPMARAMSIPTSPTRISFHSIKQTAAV
Description: The concentration required for 50% maximum effect (A50) was 0.4 nM.
Human CRHR1 (accession number X72304) or CRHR2 (accession number U34587) were cloned into pcDNA3.1/Zeo expression vector and stably transfected into SK-N-MC cells by electroporation. Cells were maintained in MEM w/Earl's Salt with 10% FBS, 50 I.U. penicillin, 50 μg/ml streptomycin, 2 mM L-glutamine, 1 mM sodium pyruvate and 0.1 mM nonessential amino acids, 600 μg/ml G418. Cells were grown at 37° C. in 5% CO2.
Cells were plated in 96-well tissue culture dishes (Biocoat from BD Biosciences) overnight at 50,000 cell/well. Cells were washed with PBS then resuspended in DMEM F-12 without phenol red, containing 10 μM isobutylmethylxanthine (IBMX). Cells were incubated with the peptides at concentrations ranging from 1 pM to 10 μM for 60 min at 37° Celsius. […] Forskolin (10 μM), a direct stimulant of adenylate cyclase, was used as positive control. The assays were stopped by the addition of 0.5 M HCl and mixing by orbital rotation for 2 h at 4° Celsius.
To assess the activity of the inventive peptide at the CRHR2, an intracellular cAMP measurement test using a Flash plate radioactive assay (Catalog No. Cus56088; Perkin Elmer, MA, U.S.A.) was employed.
Transfected SK-N-MC cells were plated in 96-well Biocoat tissue culture dishes (BD Biosciences, San Jose, Calif., U.S.A) overnight at 50,000 cell/well. Cells were first washed with PBS and then suspended with DMEM/F-12 without phenol red, containing […]. Suspended cells were transferred into a 96-well flash plate coated with scintillant fluid. Cells were incubated with peptides ranging from […], for 60 min, at 37° Celsius. Forskolin at 10 μM was used as positive control. After ligand stimulation, cells were lysed by the addition of 0.5M HCl and mixed by orbital rotation for 2 h at 4° Celsius in order to release intracellular cAMP into the media.
Media containing released intracellular cAMP was transferred to a 96-well flash plate coated with scintillant fluid containing an anti-cAMP antibody. In this assay, intracellular cAMP competes with ^125I-labeled cAMP binding to the antibody. To generate a standard curve, cAMP ranging from 2.5 to 250 pmoles/ml was included in the experiment. [^125I]-cAMP was measured on a TopCount scintillation counter (Perkin Elmer, MA, U.S.A).
Individual agonist concentration-response curve data were fitted to the Hill equation, see formula below, using GraphPad Prism (Graphpad Software, La Jolla, Calif., U.S.A.), to provide estimates of agonist concentration needed to generate one-half maximal response (A50), and the maximal asymptote (α) and Hill slope (nH) parameters. In this equation, [A] is the agonist concentration and E is the measured effect:
For display purposes the mean fitted parameter estimates were used to generate a single E/[A] curve shown superimposed on the mean experimental data. Potency estimates for agonists, pA50, are expressed as the negative logarithm of the midpoint of each curve and listed with their standard error of measurement (SEM). Logarithm base 10 of the agonist dose ratio (Log DR) values were calculated by subtraction of the test compound pA50 value from the corresponding h-SCP (SEQ ID NO:1) control pA50 value within the same assay batch. The SEM values of the Log DR values are given by the square root of the sum of the squared SEM values of the h-SCP (SEQ ID NO:1) control and test compound pA50 values.
Human and rat peptides (see Table 10) were used on the stimulation of h-CRHR1 or h-CRHR2 transfected SK-N-MC cells in the cAMP flash plate assay. Peptides were incubated for 1 hr at 37° Celsius. Curves were calculated using non-linear regression sigmoidal concentration-response analysis calculation in GraphPad Prism. The so obtained pA50 values are shown in Table 11 in addition to literature values. […]

Compared with `CC[C@H](C)[C@H](NC(=O)[C@H](CCC(N)=O)NC(=O)[C@H](C)NC(=O)[C@H](CCSC)NC(=O)[C@H](CC(C)C)NC(=O)[C@H](Cc1c[nH]cn1)NC(=O)[C@H](C)NC(=O)[C@H](CC(N)=O)NC(=O)[C@H](C)NC(=O)[C@H](C)NC(=O)[C@H](C)NC(=O)[C@H](CCC(N)=O)NC(=O)[C@H](C)NC(=O)[C@H](CCCNC(=N)N)NC(=O)[C@H](CSC1CC(=O)N(CC)C1=O)NC(=O)[C@H](CC(N)=O)NC(=O)[C@H](CCCCN)NC(=O)[C@H](C)NC(=O)[C@H](CCCCN)NC(=O)[C@H](C)NC(=O)[C@@H](NC(=O)[C@H](CC(N)=O)NC(=O)[C@H](Cc1ccccc1)NC(=O)[C@H](CC(C)C)NC(=O)[C@H](CC(C)C)NC(=O)[C@H](CC(N)=O)NC(=O)[C@H](CCSC)NC(=O)[C@@H](NC(=O)[C@H](CC(N)=O)NC(=O)[C@@H](NC(=O)[C@@H]1CCCN1C(=O)[C@@H](NC(=O)[C@H](CC(=O)O)NC(=O)[C@H](CC(C)C)NC(=O)[C@H](CO)NC(=O)[C@H](CC(C)C)NC(=O)[C@@H](NC(=O)[C@H](Cc1ccccc1)NC(=O)[C@H](CCCCN)NC(=O)[C@@H](N)[C@@H](C)O)[C@@H](C)O)C(C)C)[C@@H](C)O)[C@@H](C)CC)[C@@H](C)CC)C(N)=O` (stereo partly shown) [SEQ ID NO: 48, TKFTLSLDVPTNIMNLLFNIAKAKNC(-NES)RAQA AANAH LMAQI-NH2] (H-TKFTLSLDVPTNIMNLLFNIAKAKNC(Succinimide(1-Et,3-yl))RAQAAANAHLMAQI-NH2; N-terminus assumed), `CC[C@H](C)[C@H](NC(=O)[C@H](CCC(N)=O)NC(=O)[C@H](C)NC(=O)[C@H](CCSC)NC(=O)[C@H](CC(C)C)NC(=O)[C@H](Cc1c[nH]cn1)NC(=O)[C@H](C)NC(=O)[C@H](CC(N)=O)NC(=O)[C@H](C)NC(=O)[C@H](C)NC(=O)[C@H](C)NC(=O)[C@H](CCC(N)=O)NC(=O)[C@H](C)NC(=O)[C@H](CCCNC(=N)N)NC(=O)[C@H](CC(C)C)NC(=O)[C@H](CC(N)=O)NC(=O)[C@H](CCCCN)NC(=O)[C@H](C)NC(=O)[C@H](CCCCN)NC(=O)[C@H](C)NC(=O)[C@H](CSC1CC(=O)N(CC)C1=O)NC(=O)[C@H](CC(N)=O)NC(=O)[C@H](Cc1ccccc1)NC(=O)[C@H](CC(C)C)NC(=O)[C@H](CC(C)C)NC(=O)[C@H](CC(N)=O)NC(=O)[C@H](CCSC)NC(=O)[C@@H](NC(=O)[C@H](CC(N)=O)NC(=O)[C@@H](NC(=O)[C@@H]1CCCN1C(=O)[C@@H](NC(=O)[C@H](CC(=O)O)NC(=O)[C@H](CC(C)C)NC(=O)[C@H](CO)NC(=O)[C@H](CC(C)C)NC(=O)[C@@H](NC(=O)[C@H](Cc1ccccc1)NC(=O)[C@H](CCCCN)NC(=O)[C@@H](N)[C@@H](C)O)[C@@H](C)O)C(C)C)[C@@H](C)O)[C@@H](C)CC)C(N)=O` (stereo partly shown) [SEQ ID NO: 51, TKFTL SLDVP TNIMN LLFNC(-NES) AKAKN LRAQA AANAH LMAQI-NH2] (H-TKFTLSLDVPTNIMNLLFNC(Succinimide(1-Et,3-yl))AKAKNLRAQAAANAHLMAQI-NH2; N-terminus assumed) is higher in “Log DR” value: 0.03 for the first, 0.68 for the second.

`CC[C@H](C)[C@H](NC(=O)[C@H](CCC(N)=O)NC(=O)[C@H](C)NC(=O)[C@H](CCSC)NC(=O)[C@H](CC(C)C)NC(=O)[C@H](Cc1c[nH]cn1)NC(=O)[C@H](C)NC(=O)[C@H](CC(N)=O)NC(=O)[C@H](C)NC(=O)[C@H](C)NC(=O)[C@H](C)NC(=O)[C@H](CCC(N)=O)NC(=O)[C@H](C)NC(=O)[C@H](CCCNC(=N)N)NC(=O)[C@H](CC(C)C)NC(=O)[C@H](CSC1CC(=O)N(CC)C1=O)NC(=O)[C@H](CCCCN)NC(=O)[C@H](C)NC(=O)[C@H](CCCCN)NC(=O)[C@H](C)NC(=O)[C@@H](NC(=O)[C@H](CC(N)=O)NC(=O)[C@H](Cc1ccccc1)NC(=O)[C@H](CC(C)C)NC(=O)[C@H](CC(C)C)NC(=O)[C@H](CC(N)=O)NC(=O)[C@H](CCSC)NC(=O)[C@@H](NC(=O)[C@H](CC(N)=O)NC(=O)[C@@H](NC(=O)[C@@H]1CCCN1C(=O)[C@@H](NC(=O)[C@H](CC(=O)O)NC(=O)[C@H](CC(C)C)NC(=O)[C@H](CO)NC(=O)[C@H](CC(C)C)NC(=O)[C@@H](NC(=O)[C@H](Cc1ccccc1)NC(=O)[C@H](CCCCN)NC(=O)[C@@H](N)[C@@H](C)O)[C@@H](C)O)C(C)C)[C@@H](C)O)[C@@H](C)CC)[C@@H](C)CC)C(N)=O` (stereo partly shown) [SEQ ID NO: 49, TKFTLSLDVPTNIMNLLFNIAKAKC(-NES) LRAQA AANAH LMAQI-NH2] (H-TKFTLSLDVPTNIMNLLFNIAKAKC(Succinimide(1-Et,3-yl))LRAQAAANAHLMAQI-NH2; N-terminus assumed) and `CC[C@H](C)[C@H](NC(=O)[C@H](CCC(N)=O)NC(=O)[C@H](C)NC(=O)[C@H](CCSC)NC(=O)[C@H](CC(C)C)NC(=O)[C@H](Cc1c[nH]cn1)NC(=O)[C@H](C)NC(=O)[C@H](CC(N)=O)NC(=O)[C@H](C)NC(=O)[C@H](C)NC(=O)[C@H](C)NC(=O)[C@H](CCC(N)=O)NC(=O)[C@H](C)NC(=O)[C@H](CCCNC(=N)N)NC(=O)[C@H](CC(C)C)NC(=O)[C@H](CC(N)=O)NC(=O)[C@H](CSC1CC(=O)N(CC)C1=O)NC(=O)[C@H](C)NC(=O)[C@H](CCCCN)NC(=O)[C@H](C)NC(=O)[C@@H](NC(=O)[C@H](CC(N)=O)NC(=O)[C@H](Cc1ccccc1)NC(=O)[C@H](CC(C)C)NC(=O)[C@H](CC(C)C)NC(=O)[C@H](CC(N)=O)NC(=O)[C@H](CCSC)NC(=O)[C@@H](NC(=O)[C@H](CC(N)=O)NC(=O)[C@@H](NC(=O)[C@@H]1CCCN1C(=O)[C@@H](NC(=O)[C@H](CC(=O)O)NC(=O)[C@H](CC(C)C)NC(=O)[C@H](CO)NC(=O)[C@H](CC(C)C)NC(=O)[C@@H](NC(=O)[C@H](Cc1ccccc1)NC(=O)[C@H](CCCCN)NC(=O)[C@@H](N)[C@@H](C)O)[C@@H](C)O)C(C)C)[C@@H](C)O)[C@@H](C)CC)[C@@H](C)CC)C(N)=O` (stereo partly shown) [SEQ ID NO: 50, TKFTLSLDVPTNIMNLLFNIAKAC(-NES)N LRAQA AANAH LMAQI-NH2] (H-TKFTLSLDVPTNIMNLLFNIAKAC(Succinimide(1-Et,3-yl))NLRAQAAANAHLMAQI-NH2; N-terminus assumed) are within 0.2 log units of each other in “Log DR” value: 0.11 for the first, −0.01 for the second.
